This passage reports T/C results from PubChem BioAssay AID328 (DTP/NCI, 2004).

In the assay the test system is BDF1 mice, P388 leukemia ip, median survival T/C. In words: NCI In Vivo Anticancer Drug Screen. Data for tumor model P388 Leukemia (intraperitoneal) in B6D2F1 (BDF1) mice. The conditions noted are these: endpoint: median survival time, higher = longer survival. In short, it runs like this: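 Vehicle-dosed animals serve as the reference; survival of compound-dosed, tumour-implanted mice is divided by it.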

Setting [1] is: dose: 50.0 mg/kg/injection, schedule: Q01DX009 (ip), vehicle: saline.
[2] abbreviates: dose: 100.0 mg/kg/injection, schedule: Q01DX009 (ip), vehicle: saline with Tween-80.
The mark [3] stands for this setting: dose: 400.0 mg/kg/injection, schedule: Q01DX009 (ip), vehicle: saline with Tween-80.
The mark [4] stands for this setting: dose: 100.0 mg/kg/injection, schedule: Q04DX003 (ip), vehicle: saline with Tween-80.
Setting [5] is: dose: 200.0 mg/kg/injection, schedule: Q01DX009 (ip), vehicle: saline with Tween-80.
Setting [6] is: dose: 200.0 mg/kg/injection, schedule: Q04DX003 (ip), vehicle: saline with Tween-80.
[7] abbreviates: dose: 400.0 mg/kg/injection, schedule: Q04DX003 (ip), vehicle: saline with Tween-80.
[8] abbreviates: dose: 50.0 mg/kg/injection, schedule: Q01DX009 (ip), vehicle: saline with Tween-80.
The mark [9] stands for this setting: dose: 6.25 mg/kg/injection, schedule: Q01DX009 (ip), vehicle: saline with Tween-80.
Where [10] appears, read: dose: 100.0 mg/kg/injection, schedule: Q04DX003 (ip), vehicle: saline.

Several values for one entry are separate records, joined by “and”; a condition that tells them apart may be missing. Equal values may be shown once. Toxic doses and inconclusive results are not listed.

Consider `O=c1[nH]c(=O)c2nccnc2[nH]1`, for which the T/C is 86 % of control (dose: 12.5 mg/kg/injection, schedule: Q01DX009 (ip), vehicle: water); 266 % of control and 120 % of control (dose: 12.5 mg/kg/injection, schedule: Q04DX003 (ip), vehicle: water); 111 % of control (dose: 25.0 mg/kg/injection, schedule: Q01DX009 (ip), vehicle: water); 270 % of control and 113 % of control (dose: 25.0 mg/kg/injection, schedule: Q04DX003 (ip), vehicle: water); 92 % of control (dose: 50.0 mg/kg/injection, schedule: Q01DX009 (ip), vehicle: water); 266 % of control and 111 % of control (dose: 50.0 mg/kg/injection, schedule: Q04DX003 (ip), vehicle: water). For the same molecule, the T/C (dose: 100.0 mg/kg/injection, schedule: Q01DX009 (ip), vehicle: water) was 104 % of control; the T/C (dose: 100.0 mg/kg/injection, schedule: Q04DX003 (ip), vehicle: water) is 268 % of control and 102 % of control; the T/C (dose: 200.0 mg/kg/injection, schedule: Q04DX003 (ip), vehicle: water) was 95 % of control.

In the case of `CCCCCCCCCCCC[N+](CC)(CC)CC(=O)O`, the T/C was 113 % of control (dose: 33.0 mg/kg/injection, schedule: Q01DX009 (ip), vehicle: saline) and 113 % of control under setting [1].

Turning to `Cc1ccc(CNc2cccnc2)cc1`, the T/C was 95 % of control (dose: 50.0 mg/kg/injection, schedule: Q01DX009 (ip), vehicle: other); 104 % of control (dose: 100.0 mg/kg/injection, schedule: Q01DX009 (ip), vehicle: other); 100 % of control under setting [2]; 100 % of control (dose: 200.0 mg/kg/injection, schedule: Q01DX009 (ip), vehicle: other); 100 % of control under setting [3].

Regarding `CCOC(=O)C1C2OC(=O)C(C(=O)C2N=Nc2ccc(-c3ccc(N=NC4C(=O)C5C(=O)OC4C(C(=O)OCC)C5C4CC=CCC4)cc3)cc2)C1C1CC=CCC1` (stereo not given), the T/C is, setting by setting: under setting [2], 109 % of control; under setting [4], 110 % of control; under setting [5], 100 % of control; under setting [6], 105 % of control; under setting [3], 109 % of control; under setting [7], 115 % of control.

As for `Cc1ccc(C(=O)NCCCOc2ccc([N+](=O)[O-])cc2Cl)cc1S(=O)(=O)F`, the T/C was 98 % of control under setting [8]; 114 % of control under setting [2]; 99 % of control under setting [4]; 98 % of control under setting [5]; 99 % of control under setting [6]; 107 % of control under setting [3]. For the same molecule, under setting [7], the T/C was 90 % of control.

Take `Nc1nc(N)c2cc(Sc3ccc4ccccc4c3)ccc2n1`: the T/C is 113 % of control under setting [8] and 123 % of control under setting [2].

For `CCOC(=O)/C=C(\C)Sc1cc(O)c2ccccc2c1O`, the T/C is 102 % of control (dose: 3.13 mg/kg/injection, schedule: Q01DX009 (ip), vehicle: saline with Tween-80) and 103 % of control under setting [9].

For `CN(c1ccccc1)c1nc(=O)c2cc3ccc(=O)oc3cc2o1`, the T/C was 99 % of control (dose: 100.0 mg/kg/injection, schedule: Q04DX002 (ip), vehicle: saline with Tween-80); 109 % of control (dose: 200.0 mg/kg/injection, schedule: Q04DX002 (ip), vehicle: saline with Tween-80); 100 % of control (dose: 400.0 mg/kg/injection, schedule: Q04DX002 (ip), vehicle: saline with Tween-80).

Turning to `Nc1nc(F)nc2c1ncn2C1OC(CO)C(O)C1O` (stereo not given), the T/C is 90 % of control and 108 % of control (dose: 0.5 mg/kg/injection, schedule: Q01DX010 (ip), vehicle: saline); 100 % of control and 108 % of control (dose: 1.0 mg/kg/injection, schedule: Q01DX010 (ip), vehicle: saline); 110 % of control and 120 % of control (dose: 2.0 mg/kg/injection, schedule: Q01DX010 (ip), vehicle: saline); 105 % of control and 112 % of control (dose: 4.0 mg/kg/injection, schedule: Q01DX010 (ip), vehicle: saline).

As to `O=C(O)c1ccc(N2C(=O)c3ccccc3C2=O)cc1[N+](=O)[O-]`, the T/C runs as follows: under setting [1], 106 % of control; (dose: 100.0 mg/kg/injection, schedule: Q01DX009 (ip), vehicle: saline) 107 % of control; under setting [10], 99 % of control; (dose: 200.0 mg/kg/injection, schedule: Q01DX009 (ip), vehicle: saline) 111 % of control; (dose: 200.0 mg/kg/injection, schedule: Q04DX003 (ip), vehicle: saline) 105 % of control; (dose: 400.0 mg/kg/injection, schedule: Q04DX003 (ip), vehicle: saline) 99 % of control.

Turning to `CC(C)NC(=O)OCc1c(COC(=O)NC(C)C)c(-c2ccc(Cl)c(Cl)c2)n2c1CCC2`, the T/C is, setting by setting: (dose: 12.5 mg/kg/injection, schedule: Q01DX009 (ip), vehicle: other) 204 % of control; (dose: 25.0 mg/kg/injection, schedule: Q01DX009 (ip), vehicle: other) 214 % of control.

For `c1ccc(-c2ncc3cnccn23)cc1`, the T/C (dose: 3.12 mg/kg/injection, schedule: Q01DX009 (ip), vehicle: saline) was 100 % of control; the T/C (dose: 6.25 mg/kg/injection, schedule: Q01DX009 (ip), vehicle: saline) was 100 % of control; the T/C (dose: 12.5 mg/kg/injection, schedule: Q01DX009 (ip), vehicle: saline) was 100 % of control; the T/C (dose: 12.5 mg/kg/injection, schedule: Q04DX003 (ip), vehicle: saline) is 114 % of control; the T/C (dose: 25.0 mg/kg/injection, schedule: Q04DX003 (ip), vehicle: saline) is 116 % of control; the T/C under setting [1] was 88 % of control. Moreover, the T/C reads like this: (dose: 50.0 mg/kg/injection, schedule: Q04DX003 (ip), vehicle: saline) 105 % of control; under setting [10], 107 % of control.

Consider `CC1(C)CN(Cc2ccccc2)C(C)(C)CN1`, for which the T/C reads like this: (dose: 0.78 mg/kg/injection, schedule: Q01DX009 (ip), vehicle: saline with Tween-80) 89 % of control; (dose: 1.56 mg/kg/injection, schedule: Q01DX009 (ip), vehicle: saline with Tween-80) 97 % of control; (dose: 3.12 mg/kg/injection, schedule: Q01DX009 (ip), vehicle: saline with Tween-80) 95 % of control; (dose: 3.12 mg/kg/injection, schedule: Q04DX003 (ip), vehicle: saline with Tween-80) 114 % of control; under setting [9], 91 % of control; (dose: 6.25 mg/kg/injection, schedule: Q04DX003 (ip), vehicle: saline with Tween-80) 108 % of control. The T/C is, setting by setting: (dose: 12.5 mg/kg/injection, schedule: Q04DX003 (ip), vehicle: saline with Tween-80) 96 % of control; (dose: 25.0 mg/kg/injection, schedule: Q04DX003 (ip), vehicle: saline with Tween-80) 89 % of control.

Regarding `C=CCN(CC=C)c1ccccc1`, the T/C (dose: 100.0 mg/kg/injection, schedule: Q01DX009 (ip), vehicle: Klucel (hydroxypropylcellulose) (HPC)) is 104 % of control; the T/C (dose: 100.0 mg/kg/injection, schedule: Q04DX003 (ip), vehicle: Klucel (hydroxypropylcellulose) (HPC)) was 100 % of control; the T/C (dose: 200.0 mg/kg/injection, schedule: Q01DX009 (ip), vehicle: Klucel (hydroxypropylcellulose) (HPC)) is 109 % of control; the T/C (dose: 200.0 mg/kg/injection, schedule: Q04DX003 (ip), vehicle: Klucel (hydroxypropylcellulose) (HPC)) was 100 % of control; the T/C (dose: 400.0 mg/kg/injection, schedule: Q01DX009 (ip), vehicle: Klucel (hydroxypropylcellulose) (HPC)) is 122 % of control; the T/C (dose: 400.0 mg/kg/injection, schedule: Q04DX003 (ip), vehicle: Klucel (hydroxypropylcellulose) (HPC)) was 112 % of control.

On to `CC(C)(O)/C=C/C(=O)C(C)(O)C1C(O)CC2(C)C3CC=C4C(CC(O)C(O)C4(C)C)C3(C)C(=O)CC12C` (stereo not given), for which the T/C (dose: 0.25 mg/kg/injection, schedule: Q01DX010 (ip), vehicle: carboxymethylcellulose (CMC)) is 100 % of control; the T/C (dose: 0.5 mg/kg/injection, schedule: Q01DX010 (ip), vehicle: carboxymethylcellulose (CMC)) was 105 % of control; the T/C (dose: 1.0 mg/kg/injection, schedule: Q01DX010 (ip), vehicle: carboxymethylcellulose (CMC)) is 95 % of control; the T/C (dose: 2.0 mg/kg/injection, schedule: Q01DX010 (ip), vehicle: carboxymethylcellulose (CMC)) was 110 % of control.

Take `CCc1ccc2[nH]nc(CCC(=O)O)c(=O)c2c1`: the T/C is, setting by setting: under setting [8], 117 % of control; under setting [2], 108 % of control; under setting [5], 92 % of control.

As for `CC(C)C(Br)C(=O)NC(Cc1ccccc1)C(=O)O` (stereo not given), the T/C was 109 % of control under setting [4], 100 % of control under setting [6] and 95 % of control under setting [7].
